The assay concerns L1210 leukemia ip in BDF1 mice, survival T/C. In words: NCI In Vivo Anticancer Drug Screen. Data for tumor model L1210 Leukemia (intraperitoneal) in B6D2F1 (BDF1) mice. The settings on record: endpoint: mean survival time, higher = longer survival. Summed up:
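In this screen, tumor-bearing mice given compound are compared to those given vehicle, and their survival values are reported as a treated-to-control quotient.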

[1] abbreviates: dose: 100.0 mg/kg/injection, schedule: Q01DX001 (ip), vehicle: carboxymethylcellulose (CMC).
Where [2] appears, read: dose: 100.0 mg/kg/injection, schedule: Q01DX001 (ip), vehicle: Klucel (hydroxypropylcellulose) (HPC).
[3] abbreviates: dose: 200.0 mg/kg/injection, schedule: Q01DX001 (ip), vehicle: Klucel (hydroxypropylcellulose) (HPC).
The mark [4] stands for this setting: dose: 400.0 mg/kg/injection, schedule: Q01DX001 (ip), vehicle: Klucel (hydroxypropylcellulose) (HPC).
Setting [5] is: dose: 100.0 mg/kg/injection, schedule: Q04DX002 (ip), vehicle: Klucel (hydroxypropylcellulose) (HPC).
[6] abbreviates: dose: 200.0 mg/kg/injection, schedule: Q04DX002 (ip), vehicle: Klucel (hydroxypropylcellulose) (HPC).
Where [7] appears, read: dose: 100.0 mg/kg/injection, schedule: Q04DX002 (ip), vehicle: saline with Tween-80.
The mark [8] stands for this setting: dose: 200.0 mg/kg/injection, schedule: Q04DX002 (ip), vehicle: saline with Tween-80.
The mark [9] stands for this setting: dose: 100.0 mg/kg/injection, schedule: Q01DX001 (ip), vehicle: saline.
Where [10] appears, read: dose: 200.0 mg/kg/injection, schedule: Q01DX001 (ip), vehicle: carboxymethylcellulose (CMC).
Where [11] appears, read: dose: 100.0 mg/kg/injection, schedule: Q01DX009 (ip), vehicle: saline with Tween-80.
[12] abbreviates: dose: 200.0 mg/kg/injection, schedule: Q01DX009 (ip), vehicle: saline with Tween-80.
[13] abbreviates: dose: 400.0 mg/kg/injection, schedule: Q01DX009 (ip), vehicle: saline with Tween-80.
Where [14] appears, read: dose: 50.0 mg/kg/injection, schedule: Q01DX001 (ip), vehicle: Klucel (hydroxypropylcellulose) (HPC).
The mark [15] stands for this setting: dose: 100.0 mg/kg/injection, schedule: Q04DX003 (ip), vehicle: Klucel (hydroxypropylcellulose) (HPC).
[16] abbreviates: dose: 200.0 mg/kg/injection, schedule: Q04DX003 (ip), vehicle: Klucel (hydroxypropylcellulose) (HPC).
Where [17] appears, read: dose: 400.0 mg/kg/injection, schedule: Q04DX003 (ip), vehicle: Klucel (hydroxypropylcellulose) (HPC).
[18] abbreviates: dose: 50.0 mg/kg/injection, schedule: Q01DX001 (ip), vehicle: saline with Tween-80.
Where [19] appears, read: dose: 100.0 mg/kg/injection, schedule: Q04DX003 (ip), vehicle: saline with Tween-80.
Where [20] appears, read: dose: 200.0 mg/kg/injection, schedule: Q04DX003 (ip), vehicle: saline with Tween-80.
Setting [21] is: dose: 400.0 mg/kg/injection, schedule: Q04DX003 (ip), vehicle: saline with Tween-80.

Values joined by “and” are separate entries in the source; they are usually repeats but may differ in a detail not shown here. Equal values may be shown once. Inconclusive results and toxic doses are left out.

For the molecule `CN(CCCCN(C)P(=O)(N1CC1)N1CC1)P(=O)(N1CC1)N1CC1`, under setting [1], the T/C is 88 % of control.
With `O=C(COc1ccccc1Cl)Nc1cccnc1`, the T/C is 113 % of control under setting [2], 103 % of control under setting [3] and 103 % of control under setting [4].
With `Cc1cc(C)c2c(c1)C/C2=N\O`, the T/C runs as follows: under setting [5], 106 % of control; under setting [6], 106 % of control; (dose: 400.0 mg/kg/injection, schedule: Q04DX002 (ip), vehicle: Klucel (hydroxypropylcellulose) (HPC)) 103 % of control.
With `Cc1c2ccccc2c2ccccc2[n+]1[O-]`, the T/C by setting is: under setting [7], 97 % of control; under setting [8], 101 % of control.
Take `C=C1C(=O)OC2C1CCC(C)=C1C(=O)C=C(C)C12` (stereo not drawn): the T/C is 94 % of control (dose: 100.0 mg/kg/injection, schedule: Q04DX002 (ip), vehicle: saline) and 97 % of control (dose: 200.0 mg/kg/injection, schedule: Q04DX002 (ip), vehicle: saline).
Turning to `COc1ccc(/C=C(\SS/C(=C/c2ccc(OC)cc2)C(=O)O)C(=O)O)cc1`, the T/C by setting is: under setting [9], 89 % of control; (dose: 200.0 mg/kg/injection, schedule: Q01DX001 (ip), vehicle: saline) 94 % of control.
With `CCCCCOc1ccc(C2=C(c3ccccc3)C(=O)C(c3ccccc3)=C2c2ccccc2)cc1`, the T/C by setting is: under setting [1], 100 % of control; under setting [10], 100 % of control; (dose: 400.0 mg/kg/injection, schedule: Q01DX001 (ip), vehicle: carboxymethylcellulose (CMC)) 94 % of control.
As for `CCCCN=C(N)c1ccc(NC(=O)c2ccc(C(=O)Nc3ccc(C(N)=NCCCC)cc3)cc2)cc1`, the T/C is, setting by setting: (dose: 6.0 mg/kg/injection, schedule: Q01DX001 (ip), vehicle: methylcellulose (MC)) 110 % of control; (dose: 6.0 mg/kg/injection, schedule: Q01DX Z (ip), vehicle: methylcellulose (MC)) 212 % of control; (dose: 12.0 mg/kg/injection, schedule: Q01DX Z (ip), vehicle: methylcellulose (MC)) 100 % of control; (dose: 15.0 mg/kg/injection, schedule: Q01DX001 (ip), vehicle: methylcellulose (MC)) 119 % of control.
In the case of `CC(/C=C/C=C/c1ccccc1)=N\O`, the T/C reads like this: (dose: 100.0 mg/kg/injection, schedule: Q01DX009 (ip), vehicle: Klucel (hydroxypropylcellulose) (HPC)) 98 % of control; (dose: 200.0 mg/kg/injection, schedule: Q01DX009 (ip), vehicle: Klucel (hydroxypropylcellulose) (HPC)) 90 % of control; (dose: 400.0 mg/kg/injection, schedule: Q01DX009 (ip), vehicle: Klucel (hydroxypropylcellulose) (HPC)) 96 % of control.
On to `S=c1[nH]ccs1`, for which the T/C is, setting by setting: (dose: 25.0 mg/kg/injection, schedule: Q01DX001 (ip), vehicle: saline) 100 % of control; (dose: 50.0 mg/kg/injection, schedule: Q01DX001 (ip), vehicle: saline) 98 % of control; under setting [9], 98 % of control and 99 % of control.
Take `CSc1nc(N)c(C#N)cc1C#N`: the T/C runs as follows: under setting [11], 88 % of control; under setting [12], 88 % of control; under setting [13], 88 % of control.
With `C/C=C/CC1(C(C)C)C(=O)NC(=S)NC1=O`, the T/C (dose: 75.0 mg/kg/injection, schedule: Q01DX001 (ip), vehicle: saline) was 93 % of control.
In the case of `CCCCC(CCCCCC(CCCC)C1NC(C)Cc2cc(OC)c(OC)cc21)C1NC(C)Cc2cc(OC)c(OC)cc21` (stereo not drawn), the T/C (dose: 25.0 mg/kg/injection, schedule: Q01DX001 (ip), vehicle: Klucel (hydroxypropylcellulose) (HPC)) was 98 % of control; the T/C under setting [14] was 105 % of control; the T/C under setting [2] was 90 % of control and 91 % of control.
`O=[N+]([O-])c1cc(C(F)(F)F)ccc1Oc1ccc(Cl)cc1`: the T/C is, setting by setting: under setting [15], 96 % of control; under setting [16], 103 % of control; under setting [17], 96 % of control.
Take `CC1(C)C2CCC1(C)C(NCc1cc(Br)cc(Br)c1O)C2` (stereo not drawn): the T/C runs as follows: under setting [15], 92 % of control; under setting [16], 97 % of control; under setting [17], 98 % of control.
On to `Cc1cccc2c1NC(c1ccccc1)C(C)S2(=O)=O` (stereo not drawn), for which the T/C is 106 % of control under setting [14], 96 % of control under setting [2], 102 % of control under setting [3] and 96 % of control under setting [4].
For `CN1CCCN(C)C1c1ccc(Cl)cc1`, the T/C runs as follows: (dose: 6.25 mg/kg/injection, schedule: Q04DX003 (ip), vehicle: saline) 99 % of control; (dose: 12.5 mg/kg/injection, schedule: Q04DX003 (ip), vehicle: saline) 99 % of control; (dose: 25.0 mg/kg/injection, schedule: Q04DX003 (ip), vehicle: saline) 91 % of control.
Consider `Nc1ncnc(N)c1NC(=O)CCCc1ccccc1`, for which the T/C reads like this: under setting [15], 86 % of control; under setting [16], 92 % of control.
As to `COc1cc([N+](=O)[O-])ccc1NC(=O)N(C)Cc1ccccc1`, the T/C by setting is: under setting [18], 95 % of control; (dose: 100.0 mg/kg/injection, schedule: Q01DX001 (ip), vehicle: saline with Tween-80) 93 % of control; under setting [11], 96 % of control; under setting [7], 92 % of control and 93 % of control; under setting [19], 116 % of control; under setting [12], 98 % of control. Moreover, the T/C under setting [8] was 94 % of control and 102 % of control; the T/C under setting [20] was 98 % of control; the T/C (dose: 400.0 mg/kg/injection, schedule: Q01DX001 (ip), vehicle: saline with Tween-80) is 87 % of control and 88 % of control; the T/C under setting [13] was 94 % of control; the T/C (dose: 400.0 mg/kg/injection, schedule: Q04DX002 (ip), vehicle: saline with Tween-80) is 93 % of control and 101 % of control; the T/C under setting [21] is 101 % of control.
In the case of `COC(=O)/C=C(\C)Sc1ccc(Cl)cc1`, the T/C (dose: 100.0 mg/kg/injection, schedule: Q04DX002 (ip), vehicle: other) is 91 % of control; the T/C (dose: 200.0 mg/kg/injection, schedule: Q04DX002 (ip), vehicle: other) is 98 % of control; the T/C (dose: 400.0 mg/kg/injection, schedule: Q04DX002 (ip), vehicle: other) was 102 % of control.
For `C[N+]1(N[P+](=O)NN2CCCCC2)CCCCC1` (stereo not drawn), the T/C under setting [1] was 98 % of control and the T/C under setting [10] was 104 % of control.
Turning to `NC(=S)N/N=C/c1c(Cl)n(C(=O)c2ccccc2Cl)c2ccccc12`, the T/C is 87 % of control (dose: 50.0 mg/kg/injection, schedule: Q04DX002 (ip), vehicle: Klucel (hydroxypropylcellulose) (HPC)); 87 % of control under setting [5]; 91 % of control under setting [6].
`CCOP(=S)(OCC)SCc1ccc(C)cc1`: the T/C is, setting by setting: under setting [19], 98 % of control; under setting [20], 103 % of control; under setting [21], 110 % of control.
In the case of `CSc1ncnc2c1ncn2N(CCCCN=C=S)C(C)=O`, the T/C reads like this: (dose: 12.5 mg/kg/injection, schedule: Q01DX001 (ip), vehicle: saline with Tween-80) 107 % of control; (dose: 25.0 mg/kg/injection, schedule: Q01DX001 (ip), vehicle: saline with Tween-80) 98 % of control; under setting [18], 103 % of control.
For `CN(C)c1ccc(/C=N\NC(=S)Nc2ccc3cn[nH]c3c2)cc1`, the T/C (dose: 50.0 mg/kg/injection, schedule: Q01DX001 (ip), vehicle: carboxymethylcellulose (CMC)) is 102 % of control; the T/C under setting [1] is 102 % of control; the T/C under setting [10] was 111 % of control.
In the case of `C1CCC2CC(NC3=NCCO3)CCC2C1` (stereo not drawn), the T/C by setting is: (dose: 0.19 mg/kg/injection, schedule: Q01DX009 (ip), vehicle: Klucel (hydroxypropylcellulose) (HPC)) 96 % of control; (dose: 0.39 mg/kg/injection, schedule: Q01DX009 (ip), vehicle: Klucel (hydroxypropylcellulose) (HPC)) 98 % of control; (dose: 0.78 mg/kg/injection, schedule: Q01DX009 (ip), vehicle: Klucel (hydroxypropylcellulose) (HPC)) 98 % of control and 113 % of control.
On to `CCOC(=O)CCC(NC(=O)c1c(Cl)cc(N(C)S(=O)(=O)c2ccc(C)cc2)cc1Cl)C(=O)OCC` (stereo not drawn), for which the T/C under setting [15] is 105 % of control, the T/C under setting [16] is 97 % of control and the T/C under setting [17] was 97 % of control.

These data come from PubChem BioAssay AID248 (DTP/NCI, 2004).
